The values below come from patent US20250127805A1, “ALCOHOLIC FORMULATION WITH A MIXTURE OF ALKALOIDS, PRENOL LIPIDS AND FLAVONOIDS” (PONTIFICIA UNIVERSIDAD JAVERIANA, priority 2023, published 2025).

Molecules are shown by their SMILES.

The subject of the assay is cancer cell line type 3 model. Kind of assay: Circulating blasts, tumor development and survival in type 3 model. It is filed as in vivo. As to conditions: type 3 cancer cell line. From the text:
FIG. 12. Frequency circulating blasts in cancer cell line type 3 model.

Turning to `COc1cccc2c1C(=O)c1c(O)c3c(c(O)c1C2=O)C[C@@](O)(C(=O)CO)C[C@@H]3O[C@H]1C[C@H](N)[C@H](O)[C@H](C)O1` [doxorubicin], the tumor development result is recorded as “decrease in tumor development”.
